In PMC2873402, “Discovery of High-Affinity Protein Binding Ligands – Backwards” (PLoS ONE, 2010):
Bridge positions count the residues as written; N and C are the ends. Ends that are not written are not given here. I, II: the chains in the order shown. * marks the point of attachment. StBu = CC(C)(C)S*

What was measured:
AKT2 = experiment: Protein array (ProtoArray), binding to AKT2; parameters: species or system human
Description: (§1) Synbodies were screened on an Invitrogen ProtoArray™ (Life Technologies, Carlsbad, CA, USA) detected with Alexa-555 labeled streptavidin (Life Technologies), and scanned using a Perkin Elmer ProScan Array HTP. The spots were analyzed using GenePix Pro (Molecular Devices, Sunnyvale, CA, USA) and data were processed using Genespring GX (Agilent Technologies, Santa Clara, CA, USA). Synbodies were labeled with biotin using either Maleimide-PEG2-Biotin (Thermo Pierce, Rockford, IL, USA) to label the C-terminal cysteine or biotin was incorporated during synbody synthesis by replacing the C-terminal cysteine with Lys-biotin (Novabiochem, San Diego, CA, USA). Synbodies were screened on the array using the recommended protocol with the following modifications: the arrays were blocked with 5 mL blocking buffer (50mM HEPES pH 7.5, 200 mM NaCl, 0.08% Triton X-100, 25% Glycerol, 20mM reduced Glutathione, 1.0mM DTT, 1% BSA) for 90 min. A 200 nM synbody solution was incubated in probing buffer (1× PBS, 1% BSA, 0.1% Tween) for 90 minutes. Slides were dried by centrifugation at 200g for 1 minute and scanned at 100% laser power and 70% photomultiplier voltage. The gal file was obtained for each array by submitting the barcode of the array to www.invitrogen.com/protoarray.
(§2) Heat maps were constructed using median-normalized data from each ProtoArray. […]

AKT3 = experiment: Protein array (ProtoArray), binding to AKT3; parameters: species or system human
Description: as §1, §2

AKT1 [1] = molecular target: T1, AKT1 (Homo sapiens, UniProt P31749); experiment: Protein array (ProtoArray), binding to AKT1; parameters: purchased Life Technologies; details: 200 nM synbody, fluorescently labeled streptavidin
Source text: To test this approach, a candidate synbody was constructed using two peptides, […] and […], referred to as peptides 1 and 2, respectively. The sequences of the first 17 aa of these peptides were generated using a random number generator and three constant positions on the C-terminus that served as a spacer between the linker scaffold and the active portion of each peptide. A divergent synthetic method was used in which peptide 1 was synthesized from C to N terminus from the α-amine of lysine and peptide 2 was synthesized from the ε-amine of lysine (Figure 2A, Materials and Methods S1, Figure S1). The synbody was tagged on the C-terminus with biotin and screened against a Life Technologies ProtoArray™. ProtoArrays are nitrocellulose coated slides onto which 8,303 recombinant human proteins have been spotted. After a 2-hour incubation, the array was washed and bound synbody was detected using fluorescently labeled streptavidin. […]
Synbodies were screened on an Invitrogen ProtoArray™ (Life Technologies, Carlsbad, CA, USA) detected with Alexa-555 labeled streptavidin (Life Technologies), and scanned using a Perkin Elmer ProScan Array HTP. The spots were analyzed using GenePix Pro (Molecular Devices, Sunnyvale, CA, USA) and data were processed using Genespring GX (Agilent Technologies, Santa Clara, CA, USA). […]

AKT1 [2] = molecular target: T1, AKT1; experiment: SPR screening against immobilized AKT1; type: binding; parameters: purchased Life Technologies; details: 100 nM synbody, Biacore T-100, CM5 amine coupling, 25°C immobilization, 90 s association, 240 s dissociation
Description: The synbody (100nM concentration) was screened by Surface Plasmon Resonance (SPR) against immobilized AKT1 and GRP58 on a Biacore T-100 SPR. The synbody appeared to have high affinity for AKT1 and low affinity for GRP58 (Figure S2). To accurately determine the binding kinetics of the synbody-AKT1 complex, several concentrations of synbody were injected over a low-density surface of biotin-labeled AKT1 captured on a Neutratvidin SPR chip using a Biacore A-100.
SPR screening of the synbody against AKT1 and GRP58 was performed on a Biacore T-100 (GE Healthcare, Piscataway, NJ, USA). The series S sensor chip CM5, amine coupling reagents and HBS-EP were obtained from GE Healthcare. A standard amine immobilization protocol was performed at 25°C using NaHCO3 (10mM in 150mM NaCl, pH 4.5) as the immobilization buffer. The CM-5 dextran chip was activated by a 10 minute injection of a freshly prepared 1∶1 solution of 400 mM 1-ethyl-3-(3-dimethylaminopropyl)-carbodimide (EDC): 100 mM N-hydroxysuccimide (NHS) in water. The NHS-carboxy groups of the dextran surface were treated with a solution of AKT1 or GRP58 (25 µg/ml) in sodium acetate (pH 5.0) for 8 mins at a flow rate of 10 µl/min. Any residual active sites were then quenched by a 5 min pulse of ethylene diamine (1M, pH 8.5). […]

AKT1 [3] = molecular target: T1, AKT1; experiment: IP of endogenous AKT1 from A549 lysate; type: binding; parameters: N-terminal vector leader of pEXP5-NT (6xHis + TEV site by own knowledge of the vector); made in house; host or cells: Expressway Mini Cell-Free Expression System (in vitro translation); details: un-stimulated A549 lysate, 25 pmols synbody
Description: As a preliminary test of specificity, 200 ng of AKT1 (33.2 nM) was spiked into increasing amounts of cell lysate prepared from un-stimulated A549 lung epithelial cells and streptavidin beads coated with 25 pmols of synbody (7.6∶1 synbody-to-AKT1 ratio) were used to pull down AKT1 using the same IP procedure and Western Blot protocol as before.
For all IP experiments, either a 1 µM or 250 nM solution of biotin-conjugated synbody was captured on 20 µL of streptavidin coated paramagnetic M-280 Dynabeads (Life Technologies) according to the manufacturers protocol. Synbody coated beads were washed five times with 1 mL of 100 mM phosphate buffered saline containing 0.05% Tween-20 (PBST) and incubated overnight at 4°C with shaking in the desired amount of target protein in A549 cell lysate. For Kd determination experiments, serial dilutions of AKT1 or ABL1 were prepared in binding buffer. After binding, beads were washed five times with 1 mL of PBST and heated at 70°C in 20 µL of 1× LDS loading buffer (Invitrogen) for 10 minutes. The samples were analyzed by SDS-PAGE gel with Western Blot detection using the appropriate antibody and imaged on a GE Healthcare Typhoon Trio.

T1 sequence (P31749 whole entry): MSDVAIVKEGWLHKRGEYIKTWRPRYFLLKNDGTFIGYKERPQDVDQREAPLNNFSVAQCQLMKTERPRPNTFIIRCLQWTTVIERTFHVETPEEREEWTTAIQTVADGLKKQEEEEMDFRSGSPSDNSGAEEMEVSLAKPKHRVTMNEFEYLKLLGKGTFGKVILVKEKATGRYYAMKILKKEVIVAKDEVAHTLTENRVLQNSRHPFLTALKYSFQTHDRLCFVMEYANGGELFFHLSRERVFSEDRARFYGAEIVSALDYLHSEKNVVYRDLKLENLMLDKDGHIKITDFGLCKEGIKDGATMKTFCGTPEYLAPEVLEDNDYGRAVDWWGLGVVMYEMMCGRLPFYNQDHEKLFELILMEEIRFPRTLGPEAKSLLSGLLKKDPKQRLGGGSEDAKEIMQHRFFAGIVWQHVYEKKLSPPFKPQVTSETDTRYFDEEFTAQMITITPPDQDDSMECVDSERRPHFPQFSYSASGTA

binding to AKT2 on protein array (AKT2): little binding
binding to AKT3 on protein array (AKT3): little binding
affinity for AKT1 by SPR screening (AKT1 [2]): high affinity
Substance: I: AHKVVPQRQIRHAYNRYGSGKC(StBu)-NH2 / II: FRGWAHIFFGPHVIYRGGSG (amide I:21-II:C) [synbody]
binding to AKT1 on protein array (top 10 proteins) (AKT1 [1]): twice in the top 10 proteins bound by the synbody
precipitation of endogenous AKT1 (AKT1 [3]): precipitates the very low level endogenous AKT1 from the un-stimulated cell lysate
